Assay results from PMC12678337, “EAR-20 peptide, a novel NMDA receptor positive allosteric modulator” (Frontiers in Pharmacology, 2025).
No end group written: not given here.

Columns and labels:
GluN1-GluN2A receptors = conditions: channel blocker; ref Wang et al., 2021; cited from earlier work
NMDARs = tested on: NMDARs; parameters: method as in 3 sources, one per row (each row's own in cited_ref): ref Johnson and Ascher, 1987 ||| ref Chopra et al., 2015 ||| ref Lerma, 1992; conditions: cited from earlier work
GluN1-GluN2B = biological target: T1, GluN1-GluN2B (Rattus norvegicus, UniProt P35439+Q00960); format: cell-based
T1 construct: GFP (N); expressed in transfected cells; host or cells: HEK-293T

GluN1-GluN2B^ΔNTD = assay: whole-cell patch clamp, ifenprodil inhibition of NTD-deleted GluN1-GluN2B; format: cell-based; conditions: 10 µM ifenprodil co-applied with agonists; HEK-293
[1] = tested on: synaptic NMDARs, cultured hippocampal neurons; format: cell-based, rat
[2] = tested on: triheteromeric NMDARs (GluN1, GluN2A, GluN2B); conditions: cited from earlier work
[3] = tested on: GluN2B-containing di-heteromers; conditions: ref Kellner and Berlin, 2024; cited from earlier work

T1 sequence (Q00960 27-1482, other chains not shown): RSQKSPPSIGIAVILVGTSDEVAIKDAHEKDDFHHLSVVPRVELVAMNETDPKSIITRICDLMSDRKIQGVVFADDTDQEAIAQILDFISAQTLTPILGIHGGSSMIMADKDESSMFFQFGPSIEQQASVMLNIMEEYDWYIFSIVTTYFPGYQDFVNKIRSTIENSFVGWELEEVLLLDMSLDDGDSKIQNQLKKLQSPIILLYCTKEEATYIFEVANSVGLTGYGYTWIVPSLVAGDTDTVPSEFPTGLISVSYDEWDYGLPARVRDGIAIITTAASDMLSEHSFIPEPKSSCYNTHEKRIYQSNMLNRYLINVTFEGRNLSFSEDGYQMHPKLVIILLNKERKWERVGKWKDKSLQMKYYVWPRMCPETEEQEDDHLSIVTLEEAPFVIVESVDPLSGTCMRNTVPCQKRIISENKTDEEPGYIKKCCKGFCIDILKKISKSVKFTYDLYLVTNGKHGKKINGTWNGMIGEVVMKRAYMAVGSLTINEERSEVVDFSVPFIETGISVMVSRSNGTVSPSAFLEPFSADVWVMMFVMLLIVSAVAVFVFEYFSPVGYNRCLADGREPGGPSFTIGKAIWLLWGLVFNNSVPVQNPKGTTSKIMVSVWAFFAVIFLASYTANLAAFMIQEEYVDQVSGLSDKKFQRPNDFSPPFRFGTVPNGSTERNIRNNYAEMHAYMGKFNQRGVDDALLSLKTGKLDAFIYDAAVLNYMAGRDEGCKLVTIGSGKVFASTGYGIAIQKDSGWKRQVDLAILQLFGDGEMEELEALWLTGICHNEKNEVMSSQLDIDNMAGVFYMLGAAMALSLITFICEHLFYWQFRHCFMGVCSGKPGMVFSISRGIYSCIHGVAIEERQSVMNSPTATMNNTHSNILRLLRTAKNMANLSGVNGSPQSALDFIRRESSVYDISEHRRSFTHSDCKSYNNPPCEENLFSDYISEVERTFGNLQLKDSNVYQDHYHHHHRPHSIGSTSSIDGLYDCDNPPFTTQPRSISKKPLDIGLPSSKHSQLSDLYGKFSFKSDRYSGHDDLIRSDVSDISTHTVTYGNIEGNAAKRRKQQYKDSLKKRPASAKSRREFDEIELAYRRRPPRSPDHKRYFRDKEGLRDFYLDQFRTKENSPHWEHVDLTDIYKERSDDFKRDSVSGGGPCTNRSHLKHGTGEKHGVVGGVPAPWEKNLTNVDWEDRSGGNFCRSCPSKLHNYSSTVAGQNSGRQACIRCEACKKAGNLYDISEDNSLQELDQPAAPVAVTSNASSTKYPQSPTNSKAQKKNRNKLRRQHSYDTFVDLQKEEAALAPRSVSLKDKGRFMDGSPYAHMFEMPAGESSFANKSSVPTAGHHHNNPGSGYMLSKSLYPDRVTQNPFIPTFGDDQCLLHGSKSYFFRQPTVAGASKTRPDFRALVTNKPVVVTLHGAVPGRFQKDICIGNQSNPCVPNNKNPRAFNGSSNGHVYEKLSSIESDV

In the case of `Nc1c2ccccc2nc2ccccc12` [9-aminoacridine], the current following removal (GluN1-GluN2A receptors) is given as “a transient inward current”.

For `N[C@@H](CCC(=O)O)C(=O)O` [glutamate, L-glutamate, reference compound], the “activation by glutamate alone” value (NMDARs; ref Johnson and Ascher, 1987) is listed as “slightly activate the channel” and the “response to glutamate alone” value (GluN1-GluN2B) is listed as “generated a significant current response”.

With `CC(C(O)c1ccc(O)cc1)N1CCC(Cc2ccccc2)CC1` (stereo not shown) [ifenprodil] the “inhibition of agonist-evoked current” value (GluN1-GluN2B^ΔNTD) was “no inhibitory effect was observed”.

In the case of `CC12CC3CC(C)(C1)CC(N)(C3)C2` [memantine], the “effect on EPSCs” value [1] is given as “abolished” and the “affinity for triheteromeric NMDARs” value ([2]; compared to NMDARs containing only GluN2B, ref Chen et al., 2020) is given as “lower affinity for triheteromeric NMDARs”.

In the case of `NCCCNCCCCNCCCN` [spermine], the “potentiation of GluN2B-containing di-heteromers” value [3] is listed as “strongly potentiates GluN2B-containing di-heteromers” and the “enhancement of triheteromeric NMDARs” value ([2]; ref Kellner and Berlin, 2024) is listed as “fails to enhance triheteromeric NMDARs”.

For “Con-G: marine cone snail toxin, NMDAR antagonist targeting the GluN2B ligand binding domain (GEEELQENQELIREKSN; not fully specified (residues 3, 4, 7, 10, 14, C-terminus); ends and bridges not checked; UniProt P07231 81-97, looked up)”, the NMDAR activity (NMDARs) is listed as “NMDAR antagonist”.

For pregnenolone sulfate, the “tail-like response on removal of modulator” value (NMDARs) is listed as “tail-like response”.
